From patent US20190185417A1, “NOVEL ANTIBIOTICS” (priority 2016, published 2019)
≈ marks a conversion by molar mass, not a printed value.

Legend:
Type in all cases: cell-based
[1] = tested on: Acinetobacter baumannii (ATCC 17978); assay: MIC by broth microdilution
Experimental: (§1) The antibacterial potency of the test article(s) was measured using the in vitro broth microdilution assay under assay conditions described by the Clinical and Laboratory Standards Institute. […] The test substance was dissolved in 100% DMSO, suspended completely by sonication or vortexing, diluted by 2-fold serial titrations in the same vehicle, for a total of 11 test concentrations. A 4 μL aliquot of each dilution was added to 196 μL of broth medium seeded with the organism suspension in wells of a 96 well plate (bacterial count: 2−8×10^5 colony forming units/mL final). The final volume was 200 μL in each well and the final DMSO concentration was 2 percent. Following incubation for 1 day at 36° C., the test plates were visually examined and wells were scored for growth or complete growth inhibition to define the minimum inhibitory concentration. Each test substance was evaluated in duplicate and the results were reported as the duplicate test values. Vehicle-control and an active reference agent were used as blank and positive controls, respectively. Microorganisms tested were Acinetobacter baumannii (ATCC 17978), Enterococcus faecalis (ATCC 29212), Enterococcus faecium VanA (ATCC 700221), Escherichia coli (ATCC 25922), Escherichia coli efflux defective DEL-tolC (JW5503), Heamophilus influenzae (ATCC 49247), Klebsiella pneumoniae (ATCC 43816), Pseudomonas aeruginosa (ATCC 27853), Pseudomonas aeruginosa MDR (NTUH-974), Staphylococcus aureus (ATCC 29213), Staphylococcus aureus MRSA (ATCC 33591) and Streptococcous pneumoniae (ATCC 46919). H. influenzae was grown in Haemophilus Test Medium and S. pneumoniae was grown in cation adjusted Muller-Hinton Broth II with 5% lysed horse blood. All other microorganisms were grown in cation adjusted Muller-Hinton Broth II.
(§2) The antibacterial potency of the test article(s) was measured using the in vitro broth microdilution assay under assay conditions described by the Clinical and Laboratory Standards Institute. […] The test substance was dissolved in 100% DMSO (unless stated below), suspended completely by sonication or vortexing, diluted by 2-fold serial titrations in the same vehicle, for a total of 11 test concentrations. A 4 μL aliquot of each dilution was added to 196 μL of broth medium seeded with the organism suspension in wells of a 96 well plate (bacterial count: 2−8×10^5 colony forming units/mL final). The final volume was 200 μL in each well and the final DMSO concentration was 2 percent. Following incubation, the test plates were visually examined and wells were scored for growth or complete growth inhibition to define the minimum inhibitory concentration. Each test substance was evaluated in duplicate and the results below are the duplicate test values. Vehicle-control and an active reference agent were used as blank and positive controls, respectively.

[2] = tested on: Escherichia coli (ATCC 25922); assay: MIC by broth microdilution
Experimental: as §1, §2

[3] = tested on: Escherichia coli, efflux defective DEL-tolC (JW5503); assay: MIC by broth microdilution
Experimental: as §1, §2

[4] = tested on: Klebsiella pneumoniae (ATCC 43816); assay: MIC by broth microdilution
Experimental: as §1, §2

[5] = tested on: Pseudomonas aeruginosa (ATCC 27853); assay: MIC by broth microdilution
Experimental: as §1, §2

[6] = tested on: Pseudomonas aeruginosa, MDR (NTUH-974); assay: MIC by broth microdilution
Experimental: as §1, §2

[7] = tested on: Haemophilus influenzae (ATCC 49247); assay: MIC by broth microdilution; settings: Table 2, Example 2
Experimental: as §2

[8] = tested on: Enterococcus faecalis (ATCC29212); assay: MIC by broth microdilution; settings: Table 1, Example 1
Experimental: as §1

[9] = tested on: Enterococcus faecium, VanA (ATCC 700221); assay: MIC by broth microdilution; settings: Table 1, Example 1
Experimental: as §1

[10] = tested on: Staphylococcus aureus (ATCC 29213); assay: MIC by broth microdilution; settings: Table 1, Example 1
Experimental: as §1

[11] = tested on: Staphylococcus aureus, MRSA (ATCC 33591); assay: MIC by broth microdilution; settings: Table 1, Example 1
Experimental: as §1

[12] = tested on: Streptococcus pneumoniae (ATCC 49619); assay: MIC by broth microdilution; settings: Table 1, Example 1
Experimental: as §1

Gram-negative bacteria = assay: MIC by broth microdilution, overall statement in words; settings: for activity against Gram-negative bacteria: Example 1, statement in words; for effectiveness against the bacteria of Table 2: Example 2, statement in words
Experimental: as §1, §2

Compound	MIC ([1]; Table 2, Example 2) [µg/mL]	MIC ([2]; Table 2, Example 2) [µg/mL]	MIC ([3]; Table 2, Example 2) [µg/mL]	MIC ([4]; Table 2, Example 2) [µg/mL]	MIC ([5]; Table 2, Example 2) [µg/mL]	MIC ([6]; Table 2, Example 2) [µg/mL]	MIC [7] [µg/mL]	MIC ([1]; Table 1, Example 1) [µg/mL]	MIC ([2]; Table 1, Example 1) [µg/mL]	MIC ([3]; Table 1, Example 1) [µg/mL]	MIC ([4]; Table 1, Example 1) [µg/mL]	MIC ([5]; Table 1, Example 1) [µg/mL]	MIC ([6]; Table 1, Example 1) [µg/mL]	MIC [8] [µg/mL]	MIC [9] [µg/mL]	MIC [10] [µg/mL]	MIC [11] [µg/mL]	MIC [12] [µg/mL]	activity against Gram-negative bacteria (Gram-negative bacteria)	effectiveness against the bacteria of Table 2 (Gram-negative bacteria)
Nc1ccc(CCc2cc(CCc3ccc(N)cc3)cc(CCc3ccc(N)cc3)c2)cc1 [Compound 2 (TSB014)]	>32.0	>32.0	>32.0	>32.0	>32.0	>32.0	>32.0													
CN(C)Cc1ccc(/C=C/c2cc(/C=C/c3ccc(CN(C)C)cc3)cc(/C=C/c3ccc(CN(C)C)cc3)c2)cc1 [Compound 2]	16 (≈ 28.8 µM)	8 (≈ 14.4 µM)	4 (≈ 7.2 µM)	16 (≈ 28.8 µM)	64 (≈ 115 µM)	32 (≈ 57.6 µM)	>128	16 (≈ 28.8 µM)	8 (≈ 14.4 µM)	4 (≈ 7.2 µM)	16 (≈ 28.8 µM)	64 (≈ 115 µM)	32 (≈ 57.6 µM)	4 (≈ 7.2 µM)	2 (≈ 3.6 µM)	4 (≈ 7.2 µM)	4 (≈ 7.2 µM)	32 (≈ 57.6 µM)	active	
CC(=O)ONc1ccc(CCc2cc(CCc3ccc(NOC(C)=O)cc3)cc(CCc3ccc(NOC(C)=O)cc3)c2)cc1 [Compound 9 (TSB016)]	>32.0	>32.0	>32.0	>32.0	>32.0	>32.0	>32.0													
C[N+](C)(C)Cc1ccc(/C=C/c2cc(/C=C/c3ccc(C[N+](C)(C)C)cc3)cc(/C=C/c3ccc(C[N+](C)(C)C)cc3)c2)cc1.[I-].[I-].[I-] [Compound 1]	128	64	32	128	>128	>128	>128	128	64	32	128	> 256		128	128	32	16		active	
CN(C)C(=O)c1ccc(CCc2cc(CCc3ccc(C(=O)N(C)C)cc3)cc(CCc3ccc(C(=O)N(C)C)cc3)c2)cc1 [Compound 5 (TSB032)]	>32.0	>32.0	>32.0	>32.0	>32.0	>32.0	>32.0													
N#Cc1ccc(/C=C/c2cc(/C=C/c3ccc(C#N)cc3)cc(/C=C/c3ccc(C#N)cc3)c2)cc1 [Compound 3]	>128	>128	>128	>128	>128	>128	>128													
CN(C)c1ccc(CCc2cc(CCc3ccc(N(C)C)cc3)cc(CCc3ccc(N(C)C)cc3)c2)cc1 [Compound 11 (TSB010)]	>32.0	>32.0	>32.0	>32.0	>32.0	>32.0	>32.0													
CN(C)Cc1ccc(/C=C/c2cc(/C=C/c3ccc(CC(N)=O)cc3)cc(/C=C/c3ccc(CC(N)=O)cc3)c2)cc1 [Compound 15]	>128	>128	>128	>128	>128	>128	>128													ineffective
CN(C)Cc1ccc(/C=C/c2cc(/C=C/c3ccc(CC(N)=O)cc3)cc(/C=C/c3ccc(CC(=O)O)cc3)c2)cc1 [Compound 14]	>128	>128	>128	>128	>128	>128	>128													ineffective
O=[N+]([O-])c1ccc(CCc2cc(CCc3ccc([N+](=O)[O-])cc3)cc(CCc3ccc([N+](=O)[O-])cc3)c2)cc1 [Compound 8 (TSB036)]	>32.0	>32.0	>32.0	>32.0	>32.0	>32.0	>32.0													
CN(C)Cc1ccc(/C=C/c2cc(/C=C/c3ccc(CC(=O)O)cc3)cc(/C=C/c3ccc(CC(=O)O)cc3)c2)cc1 [Compound 16]	>128	>128	>128	>128	>128	>128	>128													ineffective
NC(=O)c1ccc(CCc2cc(CCc3ccc(C(N)=O)cc3)cc(CCc3ccc(C(N)=O)cc3)c2)cc1 [Compound 6 (TSB030)]	>32.0	>32.0	>32.0	>32.0	>32.0	>32.0	>32.0													
NC(=O)Cc1ccc(/C=C/c2cc(/C=C/c3ccc(CC(N)=O)cc3)cc(/C=C/c3ccc(CC(N)=O)cc3)c2)cc1 [Compound 17]	>128	>128	>128	>128	>128	>128	>128													
N#Cc1ccc(CCc2cc(CCc3ccc(C#N)cc3)cc(CCc3ccc(C#N)cc3)c2)cc1 [Compound 4 (TSB064)]	>32.0	>32.0	>32.0	>32.0	>32.0	>32.0	>32.0													
CN(C)c1ccc(/C=C/c2cc(/C=C/c3ccc(N(C)C)cc3)cc(/C=C/c3ccc(N(C)C)cc3)c2)cc1 [Compound 10]	>128	>128	>128	>128	>128	>128	>128													
